Test results: patent US8901105B2, “Prodrug derivatives of (E)-N-methyl-N-((3-M ethylbenzofuran-2-yl)methyl)-3-(7-oxo-5,6,7,8-tetrahydro-1,8-naphthyridin-3-yl)acrylamide” (Affinium Pharmaceuticals, Inc., priority 2012, dated 2014)
Structures can show the parent of a compound that is named as a salt.

Experiment: Solution stability in water for injection (WFI)
Format: physicochemical
[1] = 1 mg/mL solution, 5° C., 4 hours
[2] = 1 mg/mL solution, 5° C., 24 hours
[3] = 1 mg/mL solution, 5° C., 48 hours
[4] = 1 mg/mL solution, −20° C., 48 hours
[5] = 25 mg/mL solution, 5° C., 4 hours
[6] = 25 mg/mL solution, 5° C., 24 hours
[7] = 25 mg/mL solution, 5° C., 48 hours
[8] = 25 mg/mL solution, RT, 24 hours
[9] = 25 mg/mL solution, RT, 48 hours
[10] = 25 mg/mL solution, −20° C., 48 hours

In the case of `Cc1c(CN(C)C(=O)/C=C/c2cnc3c(c2)CCC(=O)N3COP(=O)(O)O)oc2ccccc12` [Compound 10, (E)-6-[(N-methyl-((3-methylbenzofuran-2-yl)methyl)amino)-3-oxoprop-1-en-1-yl)-2-oxo-3,4-dihydro-1,8-naphthyridin-1(2H)-yl]methylphosphate bis-ethanolammonium salt], the “Solution stability” value [1] is reported as 0.96 mg/mL, the “Solution stability % Area” value [1] is reported as 99.4 % Area and the “Solution stability” value [2] is reported as 0.94 mg/mL. The “Solution stability % Area” value [2] was 98.1 % Area, the “Solution stability” value [3] was 0.96 mg/mL and the “Solution stability % Area” value [3] was 98.1 % Area. The “Solution stability” value (1 mg/mL solution, Initial) was 0.97 mg/mL, the “Solution stability % Area” value (1 mg/mL solution, Initial) was 99.4 % Area and the “Solution stability” value (1 mg/mL solution, RT, 4 hours) was 0.94 mg/mL. The “Solution stability % Area” value (1 mg/mL solution, RT, 4 hours) was 99.0 % Area, the “Solution stability” value (1 mg/mL solution, RT, 24 hours) was 0.92 mg/mL and the “Solution stability % Area” value (1 mg/mL solution, RT, 24 hours) was 95.5 % Area. The “Solution stability” value (1 mg/mL solution, RT, 48 hours) was 0.64 mg/mL, the “Solution stability % Area” value (1 mg/mL solution, RT, 48 hours) was 92.1 % Area and the “Solution stability” value [4] was 0.96 mg/mL. For the same compound, the “Solution stability % Area” value [4] was 99.3 % Area, the “Solution stability” value [5] was 25.0 mg/mL and the “Solution stability % Area” value [5] was 99.3 % Area. The “Solution stability” value [6] was 24.4 mg/mL, the “Solution stability % Area” value [6] was 98.6 % Area and the “Solution stability” value [7] was 23.1 mg/mL. For the same compound, the “Solution stability % Area” value [7] was 98.0 % Area, the “Solution stability” value (25 mg/mL solution, Initial) was 24.05 mg/mL and the “Solution stability % Area” value (25 mg/mL solution, Initial) was 99.5 % Area. The “Solution stability” value (25 mg/mL solution, RT, 4 hours) was 23.9 mg/mL, the “Solution stability % Area” value (25 mg/mL solution, RT, 4 hours) was 98.8 % Area and the “Solution stability” value [8] was 22.5 mg/mL. The “Solution stability % Area” value [8] was 95.2 % Area, the “Solution stability” value [9] was 22.8 mg/mL and the “Solution stability % Area” value [9] was 91.5 % Area. For the same compound, the “Solution stability” value [10] was 24.4 mg/mL and the “Solution stability % Area” value [10] was 99.2 % Area.
